Assay results from ChEMBL document CHEMBL1759901 (Bioorg Med Chem Lett, 2011).
Calls of active or inactive are those of the source. The calls are words filed in the database; no cut-off is given here.

Key:
[1] = target: T1, Nitric oxide synthase, inducible (Homo sapiens, UniProt P35228); assay: Inhibition of human recombinant iNOS
[2] = target: Sodium-dependent noradrenaline transporter (Homo sapiens, UniProt P23975); assay: Inhibition of NET
[3] = target: Sodium-dependent serotonin transporter (Homo sapiens, UniProt P31645); assay: Inhibition of serotonin transporter
Cytochrome P450 2D6 = Cytochrome P450 2D6 (Homo sapiens, UniProt P10635); assay: Inhibition of CYP2D6; assay type: ADME
[4] = target: Voltage-gated inwardly rectifying potassium channel KCNH2 (Homo sapiens, UniProt Q12809); assay: Inhibition of human ERG
[5] = target: T1, Nitric oxide synthase, inducible; assay: Inhibition of iNOS in intact human DLD1 cells assessed as nitric oxide production; assay type: cell-based, DLD-1
Hepatocyte [6] = assay: Metabolic stability in human hepatocytes assessed as per 10^6 cells; assay type: ADME, cell-based
[7] = Metabolic stability in human microsomes assessed as per mg of tissue; assay type: ADME, Microsome
[8] = Clearance in iv dosed rat; assay type: ADME, organism-based; details: in vivo
[9] = Volume of distribution at steady state in iv dosed rat; assay type: ADME, organism-based; details: in vivo, read-out: Vdss
[10] = Half life in iv dosed rat; assay type: ADME, organism-based; details: in vivo
[11] = Oral bioavailability in rat; assay type: ADME, organism-based; details: in vivo
[12] = Lipophilicity, log D of the compound; assay type: physicochemical; details: octanol/water
Hepatocyte [13] = assay: Metabolic stability in rat hepatocytes assessed as per 10^6 cells; assay type: ADME, cell-based
Homo sapiens = species: Homo sapiens; assay: Selectivity ratio of IC50 for human recombinant iNOS to IC50 for human recombinant eNOS
Rattus norvegicus [14] = assay: Analgesic activity in Dark Agouti rat collagen-induced arthritis model at 75 umol/kg bid; assay type: functional, organism-based
Rattus norvegicus [15] = assay: Analgesic activity in Dark Agouti rat collagen-induced arthritis model assessed as reduction in inflammation at 75 umol/kg bid by histological analysis; assay type: functional, organism-based
Rattus norvegicus [16] = assay: Analgesic activity in Dark Agouti rat collagen-induced arthritis model assessed as reduction in erosion scores at 75 umol/kg bid by histological analysis; assay type: functional, organism-based

T1 sequence (P35228 whole entry): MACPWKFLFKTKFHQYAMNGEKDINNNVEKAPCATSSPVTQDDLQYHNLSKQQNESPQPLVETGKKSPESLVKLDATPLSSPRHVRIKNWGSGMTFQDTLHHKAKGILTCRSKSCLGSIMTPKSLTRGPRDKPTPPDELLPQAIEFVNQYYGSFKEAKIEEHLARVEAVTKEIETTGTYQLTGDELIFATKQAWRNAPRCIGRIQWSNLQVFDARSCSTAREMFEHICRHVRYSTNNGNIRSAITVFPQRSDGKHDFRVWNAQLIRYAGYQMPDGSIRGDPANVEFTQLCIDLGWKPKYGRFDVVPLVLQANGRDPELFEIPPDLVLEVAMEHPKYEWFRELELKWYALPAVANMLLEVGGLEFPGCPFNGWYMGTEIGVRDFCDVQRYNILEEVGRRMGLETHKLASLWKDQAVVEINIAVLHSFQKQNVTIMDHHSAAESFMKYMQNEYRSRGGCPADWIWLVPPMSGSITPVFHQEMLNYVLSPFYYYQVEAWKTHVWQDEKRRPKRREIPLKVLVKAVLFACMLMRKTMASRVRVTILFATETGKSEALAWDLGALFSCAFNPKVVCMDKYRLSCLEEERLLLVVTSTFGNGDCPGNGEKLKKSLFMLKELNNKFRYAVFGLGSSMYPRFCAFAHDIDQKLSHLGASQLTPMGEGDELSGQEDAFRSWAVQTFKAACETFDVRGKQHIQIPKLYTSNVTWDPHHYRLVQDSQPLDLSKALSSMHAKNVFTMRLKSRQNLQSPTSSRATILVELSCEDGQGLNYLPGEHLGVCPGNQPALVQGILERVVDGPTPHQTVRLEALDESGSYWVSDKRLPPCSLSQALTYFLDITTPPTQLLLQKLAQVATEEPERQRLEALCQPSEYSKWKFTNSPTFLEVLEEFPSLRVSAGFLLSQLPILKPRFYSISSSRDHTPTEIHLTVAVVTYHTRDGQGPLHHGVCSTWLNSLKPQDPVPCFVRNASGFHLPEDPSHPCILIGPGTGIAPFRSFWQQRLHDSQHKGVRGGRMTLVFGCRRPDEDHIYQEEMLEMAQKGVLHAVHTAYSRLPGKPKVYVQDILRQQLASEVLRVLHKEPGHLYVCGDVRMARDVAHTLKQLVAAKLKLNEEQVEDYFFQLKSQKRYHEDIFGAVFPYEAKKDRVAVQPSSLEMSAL
Sequence of Voltage-gated inwardly rectifying potassium channel KCNH2 (Q12809 whole entry): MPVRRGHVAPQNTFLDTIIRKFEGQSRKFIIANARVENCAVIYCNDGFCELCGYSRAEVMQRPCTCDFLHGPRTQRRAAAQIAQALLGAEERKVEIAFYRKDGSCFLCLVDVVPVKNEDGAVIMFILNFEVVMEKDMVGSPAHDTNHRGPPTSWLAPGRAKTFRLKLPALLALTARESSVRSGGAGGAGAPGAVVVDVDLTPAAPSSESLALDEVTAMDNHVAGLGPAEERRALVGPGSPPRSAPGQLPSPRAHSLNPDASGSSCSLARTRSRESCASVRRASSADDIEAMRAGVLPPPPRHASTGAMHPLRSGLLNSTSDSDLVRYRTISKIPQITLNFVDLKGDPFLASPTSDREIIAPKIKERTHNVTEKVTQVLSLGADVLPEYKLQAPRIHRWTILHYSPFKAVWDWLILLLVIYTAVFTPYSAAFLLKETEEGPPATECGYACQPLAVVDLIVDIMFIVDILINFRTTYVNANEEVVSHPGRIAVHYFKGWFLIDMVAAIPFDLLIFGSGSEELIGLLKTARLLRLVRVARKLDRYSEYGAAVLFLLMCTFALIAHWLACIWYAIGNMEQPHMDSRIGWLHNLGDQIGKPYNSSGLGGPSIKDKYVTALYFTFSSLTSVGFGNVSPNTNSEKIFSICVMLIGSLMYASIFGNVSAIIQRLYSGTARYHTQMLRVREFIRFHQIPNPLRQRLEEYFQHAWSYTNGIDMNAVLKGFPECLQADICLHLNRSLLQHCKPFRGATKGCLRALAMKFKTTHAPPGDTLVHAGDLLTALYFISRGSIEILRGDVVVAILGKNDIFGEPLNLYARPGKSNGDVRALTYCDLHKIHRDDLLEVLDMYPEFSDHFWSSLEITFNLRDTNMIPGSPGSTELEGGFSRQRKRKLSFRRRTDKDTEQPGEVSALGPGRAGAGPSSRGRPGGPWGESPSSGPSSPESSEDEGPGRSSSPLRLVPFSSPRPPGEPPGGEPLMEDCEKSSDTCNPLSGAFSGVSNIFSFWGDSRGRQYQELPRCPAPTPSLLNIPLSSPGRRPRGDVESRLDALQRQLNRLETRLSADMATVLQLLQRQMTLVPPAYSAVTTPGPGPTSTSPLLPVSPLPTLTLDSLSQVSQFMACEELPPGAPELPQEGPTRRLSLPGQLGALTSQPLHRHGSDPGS
Sequence of Sodium-dependent serotonin transporter (P31645 whole entry): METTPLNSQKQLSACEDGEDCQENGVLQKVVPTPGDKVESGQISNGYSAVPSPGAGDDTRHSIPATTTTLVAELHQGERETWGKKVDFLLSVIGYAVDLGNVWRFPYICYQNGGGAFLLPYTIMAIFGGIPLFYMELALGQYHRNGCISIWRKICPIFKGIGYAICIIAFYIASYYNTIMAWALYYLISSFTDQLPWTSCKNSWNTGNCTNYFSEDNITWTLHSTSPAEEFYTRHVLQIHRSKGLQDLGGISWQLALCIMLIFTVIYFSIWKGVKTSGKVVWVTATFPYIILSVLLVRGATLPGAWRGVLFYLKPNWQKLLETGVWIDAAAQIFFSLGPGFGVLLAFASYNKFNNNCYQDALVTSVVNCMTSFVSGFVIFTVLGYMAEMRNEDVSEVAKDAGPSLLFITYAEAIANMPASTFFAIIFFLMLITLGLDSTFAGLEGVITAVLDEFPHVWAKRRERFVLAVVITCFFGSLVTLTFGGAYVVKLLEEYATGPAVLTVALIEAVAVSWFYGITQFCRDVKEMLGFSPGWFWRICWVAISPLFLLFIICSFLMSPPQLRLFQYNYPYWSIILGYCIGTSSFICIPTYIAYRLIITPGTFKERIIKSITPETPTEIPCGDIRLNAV
Sequence of Sodium-dependent noradrenaline transporter (P23975 whole entry): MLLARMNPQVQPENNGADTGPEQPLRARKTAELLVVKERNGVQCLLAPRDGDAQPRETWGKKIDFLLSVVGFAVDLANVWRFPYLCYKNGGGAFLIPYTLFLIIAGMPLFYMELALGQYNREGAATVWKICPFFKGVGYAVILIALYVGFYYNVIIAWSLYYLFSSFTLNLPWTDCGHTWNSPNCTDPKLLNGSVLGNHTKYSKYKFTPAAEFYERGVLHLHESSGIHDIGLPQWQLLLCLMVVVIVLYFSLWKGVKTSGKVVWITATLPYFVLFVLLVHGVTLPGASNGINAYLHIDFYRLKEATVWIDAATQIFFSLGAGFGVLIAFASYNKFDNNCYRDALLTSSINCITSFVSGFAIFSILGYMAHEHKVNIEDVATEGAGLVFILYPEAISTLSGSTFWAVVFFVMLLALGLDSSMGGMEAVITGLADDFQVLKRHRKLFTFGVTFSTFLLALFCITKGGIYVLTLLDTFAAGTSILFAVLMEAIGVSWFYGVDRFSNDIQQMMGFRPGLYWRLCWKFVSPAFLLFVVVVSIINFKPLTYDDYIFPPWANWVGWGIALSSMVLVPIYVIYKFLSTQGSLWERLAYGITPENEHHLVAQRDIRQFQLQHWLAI
Sequence of Cytochrome P450 2D6 (P10635 whole entry): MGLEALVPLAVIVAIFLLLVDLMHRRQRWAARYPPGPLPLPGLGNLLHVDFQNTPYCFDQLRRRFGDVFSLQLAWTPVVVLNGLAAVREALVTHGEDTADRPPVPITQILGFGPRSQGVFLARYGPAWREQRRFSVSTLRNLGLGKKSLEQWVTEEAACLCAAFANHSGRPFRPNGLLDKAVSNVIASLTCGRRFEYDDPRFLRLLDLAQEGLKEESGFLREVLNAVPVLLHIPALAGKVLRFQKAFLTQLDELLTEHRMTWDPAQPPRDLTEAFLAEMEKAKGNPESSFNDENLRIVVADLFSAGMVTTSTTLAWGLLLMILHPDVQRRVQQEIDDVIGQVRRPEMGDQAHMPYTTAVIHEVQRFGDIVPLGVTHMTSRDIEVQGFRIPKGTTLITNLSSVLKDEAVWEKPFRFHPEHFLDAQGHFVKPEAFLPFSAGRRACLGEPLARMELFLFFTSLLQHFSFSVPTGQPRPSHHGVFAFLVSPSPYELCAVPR

Row | Compound | IC50 [1] | IC50 ([2]; read-out: IC50) | IC50 ([3]; read-out: IC50) | IC50 (Cytochrome P450 2D6; read-out: IC50) | IC50 [4] | IC50 ([5]; read-out: IC50) | logD [12] | Ratio IC50 (Homo sapiens) | further results
1 | N#Cc1ccc(Cl)cc1S[C@H](CCN)c1ccccc1.O=C(O)/C=C/C(=O)O | 0.004 µM | 17 µM | 6.7 µM | 4.1 µM | Not Active | […] |  |  | 
2 | N#Cc1ccc(C(=O)N2CCC3(CC2)N=C(N)c2c(F)ccc(F)c2N3)cn1 |  |  |  |  |  |  | 0.79 |  | IC50 [2]: Not Active; IC50 [3]: Not Active; IC50 (Cytochrome P450 2D6): Not Active; IC50 ([4]; read-out: IC50): 0.1 µM; Stability (Hepatocyte [6]): < 3 µL/min; Stability [7]: Unstable; clearance [8]: 57 mL/min/kg; Vd [9]: 4.5 L/kg; half-life [10]: 1.1 h; bioavailability [11]: 75%; Stability (Hepatocyte [13]): 5 µL/min
3 | NCC(Oc1cc(Cl)ccc1Cl)c1ccccc1 (stereo not drawn) | 1.9 µM |  |  |  | Not Active |  |  | > 53 | IC50 [2]: Not Active; IC50 [3]: Not Active; IC50 (Cytochrome P450 2D6): Not Active; IC50 ([5]; dld-1): Not Active
4 | CNCC[C@@H](Oc1cc(Cl)ccc1Cl)c1ccccc1.O=C(O)/C=C/C(=O)O | 0.022 µM |  |  |  | Not Active | 8.7 µM |  | > 4500 | IC50 (Cytochrome P450 2D6): Not Active
5 | N#Cc1cc(F)c(Cl)cc1O[C@H](CCN)c1ccccc1.O=C(O)C(=O)O | 0.006 µM | 16 µM | 4.4 µM | 0.34 µM |  | 0.7 µM | 0.8 | > 10000 | IC50 ([4]; read-out: IC50): > 10 µM; Stability (Hepatocyte [6]): < 1 µL/min; Stability [7]: 6 µL/min; clearance [8]: 49 mL/min/kg; Vd [9]: 13 L/kg; half-life [10]: 4.3 h; bioavailability [11]: 57%; Activity (Rattus norvegicus [14]): Active; Activity (Rattus norvegicus [15]): Active; Activity (Rattus norvegicus [16]): Active; Stability (Hepatocyte [13]): 8.9 µL/min
6 | CNCC[C@@H](Oc1cc(C(F)(F)F)ccc1C#N)c1ccccc1.Cl | 0.071 µM | 28 µM | 10 µM | 1.6 µM | Not Active | 2.7 µM | 1.3 | 1400 | 
7 | N#Cc1ccc(C(F)(F)F)nc1O[C@H](CCN)c1ccno1.O=C(O)C(=O)O | 0.0054 µM | > 100 µM | 70 µM | > 14 µM |  | 0.72 µM | -0.5 |  | IC50 ([4]; read-out: IC50): > 10 µM; Vd [9]: 3.4 L/kg; bioavailability [11]: 49%
8 | CNCC[C@@H](Oc1cc(OC)ccc1C#N)c1ccccc1.O=C(O)C(=O)O | 0.11 µM | 12 µM | 5.7 µM | 0.3 µM | Not Active | 9.5 µM | 0.9 |  | 
9 | Cc1ccnc(NCc2ccccc2)c1 | 0.79 µM |  |  |  |  |  |  | 12 | 
10 | CCC(CCNC)Oc1cc(Cl)ccc1C#N.Cl (racemic) | 0.051 µM | 7.1 µM | 44 µM | 0.4 µM | Not Active | 3.6 µM | 0.4 | 170 | 
11 | Cc1ccc(C#N)c(S[C@H](CCN)c2ccccc2)n1.O=C(O)/C=C/C(=O)O | 0.004 µM | 7.4 µM | 2.6 µM | 5 µM | Not Active | 0.6 µM | 0.7 | > 10000 | 
12 | N#Cc1cc(Cl)ccc1O[C@H](CCN)c1ccccc1.O=C(O)/C=C/C(=O)O | 0.96 µM |  |  |  | Not Active |  | 0.9 | 100 | IC50 [2]: Not Active; IC50 [3]: Not Active; IC50 (Cytochrome P450 2D6): Not Active; IC50 ([5]; dld-1): Not Active
13 | N#Cc1ccc(Cl)cc1O[C@H](CCN)c1ccccc1.O=C(O)C(=O)O | 0.004 µM | 15 µM | 2.1 µM | 0.4 µM | Not Active | 0.9 µM | 0.8 | > 10000 | 
14 | CNCC[C@@H](Oc1cc(Cl)ccc1C#N)c1ccccc1.Cl | 0.009 µM | 0.5 µM | 4.5 µM | 1 µM |  | 0.7 µM | 1.7 |  | Stability (Hepatocyte [6]): 1.4 µL/min; Stability [7]: 4 µL/min; clearance [8]: 94 mL/min/kg; Vd [9]: 6.6 L/kg; half-life [10]: 1.3 h; Stability (Hepatocyte [13]): 54 µL/min
